Data: patent US6562874B1, “Compositions comprising combination of DEFI and modified DEFI and methods of making” (Unilever Home & Personal Care USA division of Conopco, Inc., priority 1999, dated 2003)

Experiments:
[1] = Foaming measurement protocol (Examples 1-25), 100 mL graduated cylinder; assay type: physicochemical; settings: 1 g active mix in 20 mL water, 45° C., shaken 60 seconds, 100 mL cylinder
Experimental: Foaming Measurement Protocol (Examples 1-25)
(§1) One gram of final active mix is placed in a 100 mL glass stoppered graduated cylinder and dispersed in 20 mL of distilled de-ionized water; it is heated to 45° C. in a water bath until the temperature of the dispersion is at equilibrium. The sealed cylinder is then shaken vigorously for 60 seconds after which time the foam volume is measured in mL and recorded.

[2] = Foaming protocol for Examples 26-36, 250 mL graduated cylinder; assay type: physicochemical; settings: Table 5, 1 g in 20 mL water, 250 mL cylinder, shaken 60 seconds
Experimental: Protocol for Examples 26-36
as §1, with “250” for “100”, “glass-stoppered” for “glass stoppered”, “distilled,” for “distilled”, “equilibrium. (note: For measurements done at 20° C., the water bath is set to 20° C. and the same procedure is followed).” for “equilibrium.”

[3] = tested on: zein protein; assay: Mildness (Zein solubilization), standard Zein assay; settings: Table 5; 1% aqueous solution, 1.5 g zein, one hour
Experimental: Mildness (Zein Solubilization)
This test is based on the correlation noted between the amount of zein solubilized by an aqueous surfactant solution and its irritancy; the more zein a surfactant dissolves, the greater its intrinsic irritation potential. The procedure is conducted gravimetrically: a 1% aqueous solution of surfactant mixture is added to 1.5 g of zein protein and this mixture is allowed to stir at a constant rate for one hour. This mixture is then centrifuged (for approximately 25 minutes at 4000 rpm) and the undissolved zein is isolated, rinsed and allowed to dry in a vacuum over at 60° C. to constant weight. The zein solubilized is determined by difference.

Row | Foam Vol. ([1]; Table 1) [mL] | Foam Vol. ([1]; Table 2) [mL] | Foam at 20° C. ([2]; 20° C.) [mL] | Foam at 45° C. ([2]; 45° C.) [mL] | Zein [3] [%] | Substance
1 | 89.5 | 95 | – | – | – | sodium lauroyl isethionate [SLI - Control]
2 | – | – | 122 | 135 | 50.0 | Coco N-Methyl Taurate
